Where two headings read alike, the source gives them in different places.
Legend:
bovine serum albumin [1] = test: Protectant pretreatment against methylglyoxal cross-linking of HEPES-buffered bovine serum albumin (Example 2, Table 5); assay type: biochemical; details: 2 ml 30% BSA, 1 millimole protectant, 1 millimole methylglyoxal
Protocol: As described in TABLE #5, 2 cc of 30% bovine serum albumin was added by glass pipette to each of 6 glass 7 ml. test tubes numbered 1 through 6. 1 millimole of L-arginine hydrochloride in 0.5 ml. of 6 molar HEPES buffer was added to tube #1. 1 millimole of L-arginine hydrochloride in 0.4 ml. of 6 molar HEPES buffer was added to tube #2. 1 millimole D-arginine hydrochloride in 0.5 ml. of 6 molar HEPES buffer was added to tube #3. 1 millimole D-arginine hydrochloride in 0.4 ml. of 6 molar HEPES buffer was added to tube #4. 0.5 ml. of 6 molar HEPES buffer was added to tube #5. 1 millimole of glycocyamine in 0.5 ml. of 6 molar HEPES buffer was added to tube #6.
The pH was measured periodically and observations were made and recorded. At three hours the heating unit was reduced to room temperature, 75 degrees Fahrenheit, to prevent drying and the reaction allowed to proceed.

bovine serum albumin [2] = test: Protectant pretreatment against methylglyoxal gel formation of bovine serum albumin, pH adjusted by titration NaOH/HCL (Example 3, Table 6); assay type: biochemical
Protocol: As described in TABLE #6,2 ml. bovine serum albumin 30% solution was added to each of eight 7 ml. glass test tubes. One millimole of guanidine was added to tube #1; no protectant was added to tubes #2, #3, and #4. […] Into test tube #6 was added 1 millimole of L-arginine hydrochloride, the pH was adjusted to 7.40 by micro-drop titration. Into test tube #7 was added 1 millimole of L-arginine hydrochloride, not pH adjusted. Into test tube #8 was added 1 millimole of D-arginine hydrochloride, not pH adjusted. […] After 3 hours the heating unit was turned off reducing the temperature to room temperature, 75 degrees Fahrenheit, to prevent the drying out of the sample and the reaction was allowed to proceed overnight.

bovine serum albumin [3] = molecular target: T1, bovine serum albumin (Bos taurus, UniProt P02769); assay type: biochemical; details: for gel formation of albumin samples: pretreated with 1 millimole, 2 ml 30% BSA, 1 millimole methylglyoxal, HEPES buffered, 98.6 F., 217 rpm
T1 construct: HEPES salt, HEPES acid, and bovine serum albumin was obtained from Sigma; purchased Sigma
T1 sequence (P02769 25-607): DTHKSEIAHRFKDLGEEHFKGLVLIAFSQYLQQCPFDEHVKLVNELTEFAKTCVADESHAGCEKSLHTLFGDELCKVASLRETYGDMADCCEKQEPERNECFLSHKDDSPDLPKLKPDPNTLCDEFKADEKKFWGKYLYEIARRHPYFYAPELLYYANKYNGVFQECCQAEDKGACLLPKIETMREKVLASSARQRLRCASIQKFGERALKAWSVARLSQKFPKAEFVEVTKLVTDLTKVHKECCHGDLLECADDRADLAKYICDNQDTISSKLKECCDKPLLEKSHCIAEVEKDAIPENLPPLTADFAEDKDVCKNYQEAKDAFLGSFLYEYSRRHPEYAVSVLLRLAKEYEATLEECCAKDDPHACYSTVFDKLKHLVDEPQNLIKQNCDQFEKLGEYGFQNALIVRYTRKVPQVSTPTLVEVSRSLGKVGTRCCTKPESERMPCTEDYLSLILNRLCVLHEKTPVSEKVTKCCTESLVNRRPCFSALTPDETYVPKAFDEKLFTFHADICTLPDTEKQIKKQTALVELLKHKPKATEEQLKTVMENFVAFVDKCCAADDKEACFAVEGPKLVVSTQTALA
Protocol: The magnetic stirrer was set to 217 rpm. The pH was checked at five minutes.
The pH was constantly monitored as were the color and fluid characteristics of the mixture. […] The end-point was recorded when a visible non-flowing gel formed in the tube and could not be caused to flow when the tube was inverted at 40 degrees below the horizontal for two minutes.

[4] = tested on: New Zealand White rabbits made diabetic by streptozotocin; test: Streptozotocin-diabetic rabbits given i.v. radiolabeled glucose, kidney examination (Example 6); details: arginine HCL oral 30 mg/kg/day or i.v. 10 mg/kg/day, radiolabeled glucose i.v. daily
Protocol: (§1) Group 2: The rabbits of group 2 are fed a diet supplemented with oral D-arginine HCL 30 mg/kg/day (or an appropriate dose which can range from, for example, but not limited to, 1 mg/kg/day to 100 mg/kg/day).
(§2) Group 3: The rabbits of group 3 are fed a diet supplemented with oral L-arginine HCL 30 mg/kg/day (or an appropriate dose which can range from, for example, but not limited to, 1 mg/kg/day to 100 mg/kg/day).
(§3) Group 4: The rabbits of group 4 receive L-arginine HCL by ear vein in 10 cc normal saline at a dose of 10 mg/kg/day (or an appropriate dose which can range from, for example, but not limited to, 1 mg/kg/day to 100 mg/kg/day) for the duration of the experiment.
(§4) Group 5: The rabbits of group 5 receive D-arginine HCL by ear vein in 10 cc normal saline at a dose of 10 mg/kg/day (or an appropriate dose which can range from, for example, but not limited to, 1 mg/kg/day to 100 mg/kg/day) for the duration of the experiment.
(§5) At the end of the experiment, all animals are sacrificed and their kidneys removed, sectioned and examined for gross and microscopic changes, as well as for accumulation of the radiolabel, with special attention to the glomerular basement membrane.

bovine serum albumin [5] = test: Blocking of methylglyoxal or glyoxal cross-linking (gel formation) of albumin, inventor's tests; assay type: biochemical; details: for gelatin formation of bovine serum albumin when methylglyoxal is added: acidic solution, room temperature, 2 cc BSA pretreated with one millimole; for gelatin formation of bovine serum albumin when methylglyoxal is added / conversion of bovine serum albumin from liquid to gelatin by methylglyoxal: one millimole methylglyoxal; for blocking of the cross-linking of albumin by methylglyoxal or glyoxal: arginines: hydrochloride salts and free base forms; for conversion of bovine serum albumin from liquid to gelatin by methylglyoxal: pH 6.4 to 7.4, room temperature, 75, 80, 83, 90 and 98.6 degrees Fahrenheit, 2 cc 30% BSA pretreated with one millimole; for methylglyoxal-induced gel formation of liquid bovine serum albumin: pretreatment, free base or hydrochloride form
ovalbumin = molecular target: T2, ovalbumin (Gallus gallus, UniProt P01012); test: Reaction of methylglyoxal with ovalbumin (egg albumin); assay type: biochemical
T2 sequence (P01012 1-386): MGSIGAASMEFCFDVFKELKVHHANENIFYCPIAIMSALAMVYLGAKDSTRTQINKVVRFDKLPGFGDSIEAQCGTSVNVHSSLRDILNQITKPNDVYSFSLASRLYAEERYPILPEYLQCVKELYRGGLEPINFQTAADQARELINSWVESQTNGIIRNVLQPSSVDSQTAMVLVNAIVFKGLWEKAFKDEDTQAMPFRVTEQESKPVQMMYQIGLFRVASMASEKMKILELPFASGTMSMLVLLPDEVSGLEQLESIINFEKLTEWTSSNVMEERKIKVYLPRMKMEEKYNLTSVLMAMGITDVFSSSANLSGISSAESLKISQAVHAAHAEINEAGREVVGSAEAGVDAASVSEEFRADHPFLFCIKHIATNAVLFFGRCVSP

[6] = tested on: New Zealand White rabbits made diabetic by streptozotocin; details: arginine HCL oral 30 mg/kg/day or i.v. 10 mg/kg/day, radiolabeled methylglyoxal i.v. daily
Protocol: as §1, §2, §3, §4, §5

[7] = tested on: insulin dependent diabetic; test: L-arginine hydrochloride in a diabetic patient with painful feet (Example 9); assay type: in vivo, human; details: 700 mg twice a day (1,400 mg per day), 120kg, painful feet secondary to vasculopathy and/or neuropathy, within 6 weeks
[8] = tested on: non-diabetic animal model; test: Non-diabetic rabbits challenged with radiolabeled methylglyoxal (Example 7); details: otherwise identical to Example 5
[9] = tested on: New Zealand White rabbits; details: arginine HCL oral 30 mg/kg/day or i.v. 10 mg/kg/day, methylglyoxal i.v. daily
Protocol: as §1, §2, §3, §4

bovine serum albumin [10] = molecular target: T1, bovine serum albumin; assay type: biochemical
Protocol: As described in TABLE #4, 2 cc of 30% bovine serum albumin (BSA) was added by glass pipette (Kimax 1/100) to each of three glass 7 ml. test tubes numbered 1, 2, and 3. 0.4 ml. of 6 molar HEPES buffer was added to tube #1 by glass pipette. 0.5 ml. of 6 molar HEPES buffer was added to test tube #2. 0.3 ml. of 6 molar HEPES buffer was added to tube #3.

[11] = 2 ml BSA + 1 millimole protectant not pH adjusted, 0.18 ml of 40% pH-adjusted methylglyoxal
[12] = 2 ml BSA + 1 millimole protectant, pH adjusted to 7.40-7.46 with NaOH/HCL, 0.18 ml of 40% pH-adjusted methylglyoxal

Compound: Cl.N=C(N)NCCC[C@@H](N)C(=O)O [D-arginine Hydrochloride, D-arginine hydrochloride]
- FINAL FORM (bovine serum albumin [1]; 6 m HEPES 0.4 ml): LIQUID
- FINAL FORM (bovine serum albumin [1]; 6 m HEPES 0.5 cc/ml): LIQUID
- FINAL FORM (bovine serum albumin [2]; [11]): LIQUID
- Observation overnight (bovine serum albumin [2]; [11]): later; remained liquid overnight;
- FINAL FORM (bovine serum albumin [2]; [12]): LIQUID
- Observation at 1 hr. 5 min. (bovine serum albumin [2]; [12]): brownish, yellow liquid,
- Observation overnight (bovine serum albumin [2]; [12]): Remained liquid
- gel formation of albumin samples (bovine serum albumin [3]): did not gel at any time and remained liquid

Compound: N=C(N)NCCC[C@@H](N)C(=O)O [D-arginine]
- accumulation of radiolabeled glucose metabolites in the kidneys compared with the control [4]: reduced or absent
- gross and microscopic changes in the kidney compared to the control [4]: reduced or absent
- binding of methylglyoxal to bovine serum albumin (bovine serum albumin [5]): capable of blocking the binding
- gelatin formation of bovine serum albumin when methylglyoxal is added (bovine serum albumin [5]): prevent gelatin formation
- blocking of the cross-linking of albumin by methylglyoxal or glyoxal (bovine serum albumin [5]): worked consistently
- conversion of bovine serum albumin from liquid to gelatin by methylglyoxal (bovine serum albumin [5]): the albumin remains liquid
- methylglyoxal-induced gel formation of liquid bovine serum albumin (bovine serum albumin [5]): block methylglyoxal-induced gel formation
- binding of methylglyoxal to egg albumin (ovalbumin): capable of blocking the binding
- accumulation of radiolabeled methylglyoxal in the kidneys compared with the control [6]: reduced or absent
- gross and microscopic changes in the kidney compared to the control [6]: reduced or absent

Compound: Cl.N=C(N)NCCC[C@H](N)C(=O)O [L-arginine Hydrochloride, L-arginine hydrochloride]
- FINAL FORM (bovine serum albumin [1]; 6 m HEPES 0.4 ml): LIQUID
- FINAL FORM (bovine serum albumin [1]; 6 m HEPES 0.5 cc/ml): LIQUID
- Observation overnight (bovine serum albumin [2]; [11]): became viscous overnight;
- FINAL FORM (bovine serum albumin [2]; [12]): LIQUID
- Observation overnight (bovine serum albumin [2]; [12]): later; remained liquid overnight;
- pain in both the feet and hands [7]: marked reduction in pain
- gel formation of albumin samples (bovine serum albumin [3]): did not gel at any time and remained liquid

Compound: N=C(N)NCCC[C@H](N)C(=O)O [L-arginine]
- accumulation of radiolabeled glucose metabolites in the kidneys compared with the control [4]: reduced or absent
- gross and microscopic changes in the kidney compared to the control [4]: reduced or absent
- binding of methylglyoxal to bovine serum albumin (bovine serum albumin [5]): capable of blocking the binding
- gelatin formation of bovine serum albumin when methylglyoxal is added (bovine serum albumin [5]): prevent gelatin formation
- blocking of the cross-linking of albumin by methylglyoxal or glyoxal (bovine serum albumin [5]): worked consistently
- conversion of bovine serum albumin from liquid to gelatin by methylglyoxal (bovine serum albumin [5]): the albumin remains liquid
- methylglyoxal-induced gel formation of liquid bovine serum albumin (bovine serum albumin [5]): block methylglyoxal-induced gel formation
- binding of methylglyoxal to egg albumin (ovalbumin): capable of blocking the binding
- accumulation of radiolabeled methylglyoxal in the kidneys compared with the control [6]: reduced or absent
- gross and microscopic changes in the kidney compared to the control [6]: reduced or absent

Compound: N=C(N)NN [aminoguanidine, reference compound]
- blocking of the cross-linking of albumin by methylglyoxal or glyoxal (bovine serum albumin [5]): do not block

Compound: N=C(N)NCCC[C@H](N)C(=O)O [arginine, 2-amino-5-guanidovaleric acid]
- changes caused by methylglyoxal [8]: blocks
- level of methylglyoxal in the blood [9]: reduces

Compound: NC(=O)NCCC[C@H](N)C(=O)O [citrulline, reference compound]
- blocking of the cross-linking of albumin by methylglyoxal or glyoxal (bovine serum albumin [5]): do not block

Compound: NCCS [cystieamine, reference compound]
- blocking of the cross-linking of albumin by methylglyoxal or glyoxal (bovine serum albumin [5]): do not block

Compound: N[C@@H](CSSC[C@H](N)C(=O)O)C(=O)O [cystine, reference compound]
- blocking of the cross-linking of albumin by methylglyoxal or glyoxal (bovine serum albumin [5]): do not block

Compound: N/N=C(\N)NN [diaminoguanidine, reference compound]
- blocking of the cross-linking of albumin by methylglyoxal or glyoxal (bovine serum albumin [5]): do not block

Compound: N=C(N)NCC(=O)O [glycocyamine, reference compound]
- blocking of the cross-linking of albumin by methylglyoxal or glyoxal (bovine serum albumin [5]): do not block

Compound: N=C(N)N [guanidine, reference compound]
- FINAL FORM (bovine serum albumin [2]; 2 ml BSA, 1 millimole protectant added to BSA, 1 millimole (0.18 ml of 40%) methylglyoxal pH adjusted to 7.40): GEL
- blocking of the cross-linking of albumin by methylglyoxal or glyoxal (bovine serum albumin [5]): do not block

Compound: CC(=O)C=O [methylglyoxal]
- product formed with bovine serum albumin (bovine serum albumin [3]; pH 6.4 to 7.4, buffered and unbuffered systems): solid gelatin
- FINAL FORM (bovine serum albumin [10]; pH 7.35): GEL
- time after mixing until firm yellow gelatin formed (bovine serum albumin [10]; sample 1: 2 ml 30% BSA + 0.4 cc 6 m HEPES (pH 7.40), 1 millimole methylglyoxal (0.18 ml of 40%, pH not adjusted), no protectant, 98.6° F.): <5 minutes after mixing
- time until sudden gelatin formation (bovine serum albumin [10]; sample 3: 2 ml 30% BSA + 0.3 cc 6 m HEPES (pH 7.35), 0.20 ml of 40% methylglyoxal buffered to 7.36, counted from the 5-minute pH reading ('33 minutes later')): pH 7.07 at 5 minutes; 33
- conversion of liquid ovalbumin (ovalbumin; 0.2 cc of 40% methylglyoxal, two cc of liquid ovalbumin, within a matter of hours, 1976 unpublished works): from liquid to solid gelatin

Compound: NC(N)=O [urea, reference compound]
- blocking of the cross-linking of albumin by methylglyoxal or glyoxal (bovine serum albumin [5]): do not block

From patent US6727285B1, “Use of D-arginine and/or L-arginine to protect the amino groups of biological substances from damage, inactivation, or modification by toxic carbonyls and/or dicarbonyls” (priority 1995, dated 2004)
